# From the Kinase Knowledgebase extract (Sharma et al. 2016)
# Target: CDK2 (human) (UniProt P24941)
# Assay: Enzyme Assay
row,Compound,Ki [µM]
1,O=c1[nH][nH]c2cc(C(F)(F)F)c(-c3cc(Nc4n[nH]c5ccccc45)cc(-c4ccccc4)n3)cc12,< 1
2,O=c1[nH][nH]c2cc(C3(C4CCCC(Nc5ccccn5)C4)CC3)ccc12 (stereo unspecified),< 1
3,O=c1[nH][nH]c2cc(CSc3cc(Nc4n[nH]c5ccccc45)c4ccccc4n3)ccc12,< 1
4,O=c1[nH][nH]c2cc(C(F)(F)F)c(-c3cc(N4CCCCC4)cc(Nc4n[nH]c5ccccc45)n3)cc12,< 1
5,N#Cc1cc2[nH][nH]c(=O)c2cc1-c1nc(Nc2n[nH]c3ccccc23)nc(N2CCCCC2)n1,< 1
6,Cc1cc(Nc2cc(C3CC3)[nH]n2)nc(Sc2ccc3c(=O)[nH][nH]c3c2)n1,< 1
7,Cc1cc(Nc2cc(-c3ccccc3)nc(Nc3ccc4c(=O)[nH][nH]c4c3)n2)n[nH]1,< 1
8,Cc1cc(Nc2cc(-c3cc4c(=O)[nH][nH]c4cc3Cl)nc3c2CCCC3)n[nH]1,< 1
9,O=c1[nH][nH]c2ccc(-c3nc4c(c(Nc5n[nH]c6ccc(F)cc56)n3)CN(Cc3ccccc3)CC4)c(C(F)(F)F)c12,< 1
10,Cc1cc(Nc2cc(C)[nH]n2)nc(Nc2ccc3c(=O)[nH][nH]c3c2)n1,< 1
11,Cc1cnc(NCCCNc2ccc3c(=O)[nH][nH]c3c2)s1,< 1
12,O=c1[nH][nH]c2cc(OC3CCC(Nc4cc(C5CC5)[nH]n4)C3)ccc12 (stereo unspecified),< 1
13,O=c1[nH][nH]c2cc(Sc3nc(Nc4cc(C5CC5)[nH]n4)c4cccc(F)c4n3)ccc12,< 1
14,Cc1cnc(NC2COCC(Oc3ccc4c(=O)[nH][nH]c4c3)C2)s1 (stereo unspecified),< 1
15,Cc1cc(Nc2nc(COc3ccc4[nH][nH]c(=O)c4c3)nc3c2CCCCC3)n[nH]1,< 1
16,Cn1cnc(NC2CCCC(Oc3ccc4c(=O)[nH][nH]c4c3)C2)c1 (stereo unspecified),< 1
17,O=C(CC(=O)Nc1nccnn1)Cc1ccc2c(=O)[nH][nH]c2c1,< 1
18,Cn1cnc(NCCC(Cc2ccccc2)Sc2ccc3c(=O)[nH][nH]c3c2)c1 (stereo unspecified),< 1
19,CCCCc1cc(Nc2nc(-c3ccc4[nH][nH]c(=O)c4c3)nc(C3CC3)n2)n[nH]1,< 1
20,O=c1[nH][nH]c2cc(Nc3nc(Nc4cc(C5CC5)[nH]n4)c4cc(-c5ccccc5)ccc4n3)ccc12,< 1

row,Compound,Ki [µM]
1,O=c1[nH][nH]c2cc(C(F)(F)F)c(-c3cc(Nc4n[nH]c5ccccc45)cc(C4CCCCC4)n3)cc12,< 1
2,O=c1[nH][nH]c2ccc(-c3nc4c(c(Nc5n[nH]c6c(F)cccc56)n3)CCCCCC4)c(C(F)(F)F)c12,< 1
3,Cn1cnc(NCCCOc2ccc3c(=O)[nH][nH]c3c2)c1,< 1
4,O=c1[nH][nH]c2cc(CCCCNc3nccnn3)ccc12,< 1
5,COCCCc1cc(Nc2nc(-c3ccc4[nH][nH]c(=O)c4c3)nc3ccccc23)n[nH]1,< 1
6,Cc1cnc(NC2CCCC2CSc2ccc3c(=O)[nH][nH]c3c2)s1 (stereo unspecified),< 1
7,O=c1[nH][nH]c2ccc(-c3nc4c(c(Nc5n[nH]c6ccc(F)cc56)n3)CCNC4)c(C(F)(F)F)c12,< 1
8,O=c1[nH][nH]c2cc(Oc3cc4ccccc4c(Nc4n[nH]c5ccccc45)n3)ccc12,< 1
9,Cc1cccc(-c2cc(Nc3cc(C)[nH]n3)nc(Oc3ccc4c(=O)[nH][nH]c4c3)n2)c1,< 1
10,O=c1[nH][nH]c2cc(SC3CCCC(Nc4cc(C5CC5)[nH]n4)C3)ccc12 (stereo unspecified),< 1
11,Cc1cc(Nc2cc(-c3ccccc3)nc(Oc3ccc4c(=O)[nH][nH]c4c3)n2)n[nH]1,< 1
12,O=c1[nH][nH]c2cc(Nc3cc(Nc4n[nH]c5ccccc45)ccn3)ccc12,< 1
13,CS(=O)(=O)N1CCCCC1c1cc(Nc2n[nH]c3ccccc23)nc(-c2ccc3[nH][nH]c(=O)c3c2C(F)(F)F)n1 (stereo unspecified),< 1
14,Cc1cc(Nc2cc(C(=O)N3CCN(C)CC3)nc(Sc3ccc4c(=O)[nH][nH]c4c3)n2)n[nH]1,< 1
15,O=c1[nH][nH]c2cc(C(F)(F)F)c(-c3nc4c(c(Nc5n[nH]c6ccc(F)cc56)n3)OCCC4)cc12,< 1
16,Cc1cc(Nc2cccc(Oc3ccc4c(=O)[nH][nH]c4c3)n2)n[nH]1,< 1
17,O=c1[nH][nH]c2cc(C3CC3)c(-c3nc(Nc4n[nH]c5c(F)cc(F)cc45)c4ccccc4n3)cc12,< 1
18,O=c1[nH][nH]c2cc(Nc3cc(Nc4cc(C5CC5)[nH]n4)ncn3)ccc12,< 1
19,CNc1cnc(-c2ccc3[nH][nH]c(=O)c3c2C(F)(F)F)nc1Nc1n[nH]c2ccccc12,< 1

# Results, then the molecule that gave them:
row,Ki [µM],Compound
1,< 1,O=c1[nH][nH]c2cc(COc3cc(Nc4n[nH]c5ccccc45)c4ccccc4n3)ccc12
2,< 1,O=c1[nH][nH]c2cc(OC3COCC(Nc4nccnn4)C3)ccc12 (stereo unspecified)
3,< 1,Cc1cc(Nc2nc(Cc3ccc4c(=O)[nH][nH]c4c3)nc3c2CCN(Cc2ccccc2)C3)n[nH]1
4,< 1,O=c1[nH][nH]c2cc(OCCCNc3ccccn3)ccc12
5,< 1,O=c1[nH][nH]c2ccc(-c3nc(Nc4n[nH]c5c(F)cccc45)c4ccncc4n3)c(Cl)c12
6,< 1,O=c1[nH][nH]c2cc(OC3COCC(Nc4ccccn4)C3)ccc12 (stereo unspecified)
7,< 1,Cc1cnc(NC2CCCC(SCc3ccc4c(=O)[nH][nH]c4c3)C2)s1 (stereo unspecified)
8,< 1,O=c1[nH][nH]c2cc(OC3CCC(Nc4nccnn4)C3)ccc12 (stereo unspecified)
9,< 1,O=c1[nH][nH]c2ccc(-c3nc(Nc4n[nH]c(-c5ccccc5)c4-c4ccccc4)c4ccccc4n3)c(C(F)(F)F)c12
10,< 1,O=c1[nH][nH]c2cc(NCC3CCCC3Nc3ccccn3)ccc12 (stereo unspecified)
11,< 1,O=c1[nH][nH]c2cc(Nc3ccc([N+](=O)[O-])c(Nc4ncn[nH]4)n3)ccc12
12,< 1,O=c1[nH][nH]c2cc(Nc3nc(Nc4cc(C5CC5)[nH]n4)cc(-c4ccccc4Cl)n3)ccc12
13,< 1,O=c1[nH][nH]c2cc(OCCC(Nc3nccnn3)c3ccccc3)ccc12 (stereo unspecified)
14,< 1,Cc1cnc(NC(CCNc2ccc3c(=O)[nH][nH]c3c2)c2ccccc2)s1 (stereo unspecified)
15,< 1,Cc1cc(Nc2nc(-c3ccc4[nH][nH]c(=O)c4c3Cl)nc(C)c2C)n[nH]1
16,< 1,O=c1[nH][nH]c2cc(OC3CCCC(Nc4ccccn4)C3)ccc12 (stereo unspecified)
17,< 1,CC(=O)N1CCC(c2cc(Nc3n[nH]c4ccccc34)nc(-c3ccc4[nH][nH]c(=O)c4c3C(F)(F)F)n2)CC1
18,< 1,O=c1[nH][nH]c2ccc(C3COCC(Nc4nccnn4)C3)cc12 (stereo unspecified)
19,< 1,Cc1cnc(NC2COCC(Nc3ccc4c(=O)[nH][nH]c4c3)C2)s1 (stereo unspecified)

row,Ki [µM],Compound
1,< 1,O=c1[nH][nH]c2cc(SCCC(Nc3cc(C4CC4)[nH]n3)c3ccccc3)ccc12 (stereo unspecified)
2,< 1,Cc1cc(Nc2cc(C)[nH]n2)nc(COc2ccc3[nH][nH]c(=O)c3c2)n1
3,< 1,Cc1cnc(NCCC(Cc2ccccc2)Sc2ccc3c(=O)[nH][nH]c3c2)s1 (stereo unspecified)
4,< 1,O=c1[nH][nH]c2cc(CCCC(Nc3nccnn3)c3ccccc3)ccc12 (stereo unspecified)
5,< 1,Cc1cnc(NC2CCCC2CNc2ccc3c(=O)[nH][nH]c3c2)s1 (stereo unspecified)
6,< 1,Cc1cnc(NC(=O)CC(=O)Cc2ccc3c(=O)[nH][nH]c3c2)s1
7,< 1,Cc1cnc(Nc2cccc(Nc3ccc4c(=O)[nH][nH]c4c3)c2)s1
8,< 1,COC(C)(C)c1cc(Nc2cc(C3CC3)[nH]n2)nc(Sc2ccc3c(=O)[nH][nH]c3c2)n1
9,< 1,Cc1cc(Nc2cc(Cc3ccc4c(=O)[nH][nH]c4c3)nc3ccccc23)n[nH]1
10,< 1,O=c1[nH][nH]c2cc(Nc3nc(Nc4cc(C5CC5)[nH]n4)cc(-c4ccccc4)n3)ccc12
11,< 1,COCCNC(=O)c1cc(Nc2cc(C)[nH]n2)nc(Sc2ccc3c(=O)[nH][nH]c3c2)n1
12,< 1,Cc1cnc(NC(=O)CC(=O)Oc2ccc3c(=O)[nH][nH]c3c2)s1
13,< 1,O=c1[nH][nH]c2cc(Nc3ncc([N+](=O)[O-])c(Nc4cc(C5CC5)[nH]n4)n3)ccc12
14,< 1,Cc1cc(Nc2nc(-c3ccc4[nH][nH]c(=O)c4c3)nc3cnccc23)n[nH]1
15,< 1,O=c1[nH][nH]c2cc(CCCC(Nc3ccccn3)c3ccccc3)ccc12 (stereo unspecified)
16,< 1,O=c1[nH][nH]c2cc(OCCONc3cc(C4CC4)[nH]n3)ccc12
17,< 1,O=c1[nH][nH]c2cc(COCc3cc4ccccc4c(Nc4cc(C5CC5)[nH]n4)n3)ccc12
18,< 1,Cc1cc(Nc2nc(-c3ccc4[nH][nH]c(=O)c4c3C(F)(F)F)nc3c2CCNCC3)n[nH]1
19,< 1,O=c1[nH][nH]c2ccc(-c3cc(Nc4n[nH]c5ccccc45)nnc3NCCN3CCCCC3)c(C(F)(F)F)c12

row,Ki [µM],Compound
1,< 1,Cc1cc(-c2cc3c(=O)[nH][nH]c3cc2Cl)nc(Nc2n[nH]c3ccccc23)c1C
2,< 1,CC(C)c1cc2[nH][nH]c(=O)c2cc1-c1nc(Nc2n[nH]c3ccccc23)c2ccccc2n1
3,< 1,Cn1cnc(NC2CCCC(C(C)(C)c3ccc4c(=O)[nH][nH]c4c3)C2)c1 (stereo unspecified)
4,< 1,Cn1cnc(NC(=O)CCNc2ccc3c(=O)[nH][nH]c3c2)c1
5,< 1,O=c1[nH][nH]c2cc(Oc3nc(Nc4cc(C5CC5)[nH]n4)c4ccccc4n3)ccc12
6,< 1,CC(=O)NC1CCC(c2nc(-c3cc4c(=O)[nH][nH]c4cc3C(F)(F)F)nc(Nc3n[nH]c4ccccc34)c2C)CC1 (stereo unspecified)
7,< 1,COc1nc(Nc2ccc3c(=O)[nH][nH]c3c2)nc(Nc2cc(C3CC3)[nH]n2)n1
8,< 1,Cc1cnc(NCCC(Cc2ccccc2)Nc2ccc3c(=O)[nH][nH]c3c2)s1 (stereo unspecified)
9,< 1,O=c1[nH][nH]c2ccc(-c3nc(Nc4n[nH]c5ccccc45)cc(-c4ccccc4)n3)c(C(F)(F)F)c12
10,< 1,Cc1cc(Nc2cc(-c3c(C)cccc3C)nc(Oc3ccc4c(=O)[nH][nH]c4c3)n2)n[nH]1
11,< 1,Cc1cc(Nc2nc(C(C)(C)c3ccc4c(=O)[nH][nH]c4c3)nc3c2CCCCC3)n[nH]1
12,< 1,O=c1[nH][nH]c2cc(Nc3cc4ccccc4c(Nc4cc(C5CC5)[nH]n4)n3)ccc12
13,< 1,O=C(CCNc1nccnn1)Cc1ccc2c(=O)[nH][nH]c2c1
14,< 1,O=C(CCOc1ccc2c(=O)[nH][nH]c2c1)Nc1ccccn1
15,< 1,O=C(CCNc1nccnn1)Nc1ccc2c(=O)[nH][nH]c2c1
16,< 1,Cc1cc(Nc2cc(-c3ccco3)[nH]n2)nc(COc2ccc3[nH][nH]c(=O)c3c2)n1
17,< 1,Cc1cc(Nc2nc(Nc3ccc4c(=O)[nH][nH]c4c3)nc3ccc(I)cc23)n[nH]1
18,< 1,O=c1[nH][nH]c2ccc(-c3nc(Nc4cc(C5CC5)[nH]n4)c4ccccc4n3)c(C(F)(F)F)c12
19,< 1,O=c1[nH][nH]c2cc(SCCCNc3ccccn3)ccc12
